Bridge positions count the residues as written; N and C are the ends. Peptide text beside a SMILES is read from it. I, II: the chains in the order shown.
How the values were obtained:
[1] = system: C. albicans; test: C. albicans germ tube formation induced by horse serum; type: cell-based, Candida albicans; conditions: peptide 10^-6 M, 60 minutes at 37°C after horse serum induction
Protocol: C. albicans from stationary phase cultures were washed twice with distilled water and suspended in HBSS to a final concentration of 2 x 10^6/ml. Hyphal growth was induced by addition of 10% inactivated horse serum (GIBCO/ BRL, Paisley, Great Britain) to yeast incubated for 45 minutes at 37°C with continuous shaking. […] The percentage of filamentous cells was evaluated under a light microscope with the aid of a hemocytometer. Experiments were run in triplicates and at least 200 cells were scored. Photomicrographs were taken with a MC100 camera attached to an Axioskop Zeiss microscope.

[2] = rabbit, in vivo; cited from earlier work
[3] = system: C. albicans; conditions: for C. albicans viability: Figure 4, procedures of Example II; for ability of C albicans to form colony: Figure 3, 10^-12 to 10^-4 M, p<0.01 vs. control
Protocol: (§1) Clinical isolates of C. albicans were also obtained from the collection of the Department of Microbiology, Ospedale Maggiore di Milano. Cultures of C. albicans were maintained on Sabouraud's agar slants and periodically transferred to Sabouraud's agar plates and incubated for 48 hours at 28°C. To prepare stationary growth-phase yeast, a colony was taken from the agar plate, transferred into 30 ml of Sabouraud-dextrose broth, and incubated for 72 hours at 32°C. Cells were centrifuged at 1000xg for ten minutes, and the pellet was washed twice with distilled water. Cells were counted and suspended in Hank's balanced salt solution ("HBSS") to the desired concentration.
(§2) Cells were then washed in cold distilled water and diluted with HBSS to a concentration of 100 organisms/ml. One-milliliter aliquots were then dispensed on blood agar plates and incubated for 48 hours at 37°C. The organism's viability was estimated from the number of colonies formed.
(§3) The reactions were stopped after three minutes by the addition of ice cold ethanol. cAMP levels were measured in duplicates using a commercial enzyme immunoassay kit (Amersham, United Kingdom) after extraction-via the liquid-phase method according to the manufacturer's instructions. […] The effects of forskolin and ddAdo on the ability of C. albicans to form colonies were determined according to the procedures described in Example II.

[4] = system: S. aureus (ATCC 29213); test: S. aureus viability estimated from colonies formed; type: cell-based, Staphylococcus aureus; conditions: Figure 1; two hours at 37°C; significant with peptide concentrations of 10^-12 to 10^-4 M
Protocol: (§4) Cultures of S. aureus (ATCC 29213) were obtained from the collection of the Department of Microbiology, Ospedale Maggiore di Milano. […] Cells were then washed in cold distilled water and diluted with HBSS to a concentration of 100 organisms/ml. One-milliliter aliquots were dispensed on blood agar plates and incubated for 24 hours at 37°C. Viability of the microorganisms was estimated from the colonies formed. In another set of experiments, 500 units of urokinase, a S. aureus growth enhancer, were also incubated with the bacteria (10^5/100ml) for four hours at 37°C in a shaking water bath together with the peptides.

[5] = system: NF-κB; test: NF-κB binding activity in nuclear extracts of U1 cells (gel shift); type: cell-based, human
Protocol: For the determination of specific bands, nuclear extracts were first incubated with 100 fold excess unlabeled probe for five minutes, before incubation with a labeled probe. […] The gels were dried and autoradiographed.

[6] = system: C. albicans; test: cAMP content of permeabilized C. albicans (enzyme immunoassay); type: cell-based, Candida albicans; conditions: Figure 7; 10^-6 M, three minutes; same order of magnitude as equimolar forskolin
Protocol: ID. NO. 4), (11-13) (SEQ. ID. NO. 1), or forskolin, an agent known to increase intracellular cAMP. The reactions were stopped after three minutes by the addition of ice cold ethanol. cAMP levels were measured in duplicates using a commercial enzyme immunoassay kit (Amersham, United Kingdom) after extraction-via the liquid-phase method according to the manufacturer's instructions.

[7] = system: HIV-1 RNA; test: Northern Blot analysis of HIV-1 RNA in PMA stimulated U1 cells; type: cell-based; conditions: Figure 12
[8] = system: HIV-1; conditions: Figure 11; 10^-5M; induced by IL-6, IL-10, PMA and in crowding condition
Excerpt: Chronically HIV-1 infected promonocytic U1 cell line is an in vitro model of latent HIV infection in monocytes. These cells carry two integrated proviral copies of HIV, and constitutive expression of HIV is very low. Viral replication, however, as measured by RNA transcription , p24 antigen, or reverse transcriptase release, can be activated with different stimuli such as TNF-α, IL-6, IL-10, PMA or crowding of cells.
Crowding was achieved by seeding U 1 cells at a density of 2x10^5/ml and maintaining them in culture at 37°C in 5% CO2 without changing media for seven days. Cultures activated with cytokines or PMA were maintained for only 48 hours. Supernatants were then removed by centrifugation and assayed for p24 antigen using commercially available ELISA kits from Cellular Products, Inc. in Buffalo, NY, USA. Reverse transcriptase releases were also measured using a commercially available kit, ELISA Retrosys RT assay from Innovagen, Lund, Sweden.

[9] = system: C. albicans; test: killing of opsonized C. albicans by human neutrophils; type: cell-based, Candida albicans; conditions: Figure 6; 10^-12 to 10^-4 M; p<0.01
Protocol: Venous blood (20 ml) from healthy volunteers was anticoagulated with heparin. Neutrophils were then isolated using dextran sedimentation and centrifugation with Ficoll-Hypaque (Sigma Chemical Co., St. Louis, Missouri, USA). Erythrocytes were lysed via hypotonic shock with the resulting neutrophils representing at least 97% of the cell suspension. Cell viability; estimated by trypan blue exclusion, was greater than 98%. Neutrophils were resuspended in HBSS for the experiments. […] ID. NO. 4)or α-MSH (11-13) (SEQ. ID. […] After incubation, the culture tubes were placed on ice to stop growth, and extracellular organisms were washed twice with centrifugation at 1000-x g at 4°C. A 2.5% sodium deoxycholate solution was added to the suspension, and the tubes were shaken for five minutes. Cold distilled water was then added to obtain a suspension of 10^6 cells/ml. Two 1/100 serial dilution in HBSS were made to obtain a final suspension of 100 cells/ml. One-milliliter aliquots were then dispensed on blood agar plates and incubated for 48 hours at 37°C. Colony forming units were counted at the end of the incubation period with experiments running in triplicates and repeated using blood from five different donors.

[10] = system: S. aureus; test: urokinase induced growth of S. aureus; type: cell-based, Staphylococcus aureus; conditions: Figure 2; peptide 10^-6M; 500 units of urokinase, four hours at 37°C
Protocol: as §4

[11] = system: C. albicans; test: C. albicans viability estimated from colonies formed; type: cell-based, Candida albicans; conditions: Figure 9; ddAdo 25, 50 and 100 x 10^-5 M for two hours, then peptide two additional hours
Protocol: as §1, §2, §3

CC(=O)N[C@@H](Cc1c[nH]cn1)C(=O)N[C@@H](Cc1ccccc1)C(=O)N[C@@H](CCCNC(=N)N)C(=O)N[C@@H](Cc1c[nH]c2ccccc12)C(=O)NCC(=O)N[C@@H](CCCCN)C(=O)N1CCC[C@H]1C(=O)N[C@H](C(N)=O)C(C)C [α-MSH (6-13)] (Ac-HFRWGKPV-NH2)
reduction in the number of filamentous cells [1]: approximately 50%

[Nle^4,D-Phe^7]- α-MSH
potency in reducing fever relative to the parent peptide [2]: approximately ten times more potent

CSCC[C@H](NC(C)=O)C(=O)N[C@@H](CCC(=O)O)C(=O)N[C@@H](Cc1c[nH]cn1)C(=O)N[C@@H](Cc1ccccc1)C(=O)N[C@@H](CCCNC(=N)N)C(=O)N[C@@H](Cc1c[nH]c2ccccc12)C(=O)NCC(N)=O [α-MSH (4-10), MEHFRWG]
inhibition of colony forming units (CFU) ([3]; 48 h): approximately 50%

ACTH (18-39): ACTH fragment (18-39) (CLIP) [reference compound]
C. albicans viability [3]: did not reduce C. albicans viability

ACTH (1-39): adrenocorticotropic hormone (1-39), prepared by solid-phase peptide synthesis (SYSMEHFRWGKPVGKKRRPVKVYPNGAEDESAEAFPLEF; Corticotropin; UniProt P01189 138-176, looked up) [reference compound]
C. albicans viability [3]: did not reduce C. albicans viability

CC(=O)N[C@@H](CCCCN)C(=O)N1CCC[C@H]1C(=O)N[C@H](C(N)=O)C(C)C [α-MSH (11-13), KPV] (Ac-Lys-Pro-Val-NH2)
S. aureus colony formation [4]: inhibited S. aureus colony formation | NF-κB activation ([5]; Figure 14, TNF-α (20ng/ml) stimulated U1 cells, four hours, peptide 10^-5 M): significantly reduced NF-κB activation | NF-κB activation ([5]; resting cells): did not alter NF-κB activation | reduction in the number of filamentous cells [1]: 54-58% | cAMP content in the C. albicans [6]: enhanced cAMP content | transcription of both spliced and unspliced HIV-1 RNA [7]: inhibited | reverse transcriptase release from U1 cells [8]: inhibited | neutrophil killing of C. albicans [9]: enhanced neutrophil killing of C. albicans | ability of C albicans to form colony [3]: greatly reduced the ability of C albicans to form colony | growth of C. albicans ([3]; Figure 8, relative to control, p<0.01): significantly inhibited the growth of C. albicans | growth enhancing effect of urokinase on S. aureus [10]: significantly countered the growth enhancing effect of urokinase

CC(=O)N[C@@H](CSSC[C@H](NC(C)=O)C(=O)N[C@@H](CCCCN)C(=O)N1CCC[C@H]1C(=O)N[C@H](C(N)=O)C(C)C)C(=O)N[C@@H](CCCCN)C(=O)N1CCC[C@H]1C(=O)N[C@H](C(N)=O)C(C)C [KPV dimer] (I: Ac-CKPV-NH2 / II: Ac-CKPV-NH2; disulfide I:1-II:1)
S. aureus colony formation [4]: inhibited S. aureus colony formation | ability of C albicans to form colony [3]: greatly reduced the ability of C albicans to form colony

8-13 sequence: α-MSH 8-13 sequence (RWGKPV)
antipyretic potency relative to the 11-13 sequence [2]: greater than that of the 11-13 sequence

9-13 sequence: α-MSH 9-13 sequence (WGKPV)
antipyretic potency relative to the 11-13 sequence [2]: almost devoid of activity

10-13 sequence: α-MSH(11-13) with addition of glycine to form the 10-13 sequence (GKPV)
antipyretic potency relative to the 11-13 sequence [2]: slightly decreased potency

C[C@H]1O[C@@H](n2cnc3c(N)ncnc32)C[C@@H]1O [ddAdo, dideoxyadenosine]
effect of ddAdo on the growth inhibition of C. albicans by α-MSH (1-13) and (11-13) [11]: reverse the effect

Reference: patent EP1433485B1, “Alpha-MSH derived peptides for treating uro-genital conditions” (MSH Pharma, Inc., priority 1999, dated 2009)
